Results as given in patent US10221129B2, “Inhibitors of human immunodeficiency virus replication” (ViiV HEALTHCARE UK (NO.5) LIMITED, priority 2015, dated 2019).

Columns and labels:
[1] = test system: recombinant NL4-3 virus (nef section replaced with Renilla luciferase gene) in MT-2 cells; test: HIV cell culture assay (antiviral activity, luciferase readout); type: cell-based; details: Renilla, NL43, MT-2 cells infected for 4-5 days with recombinant NL4-3 Renilla luciferase virus
Method: HIV cell culture assay—MT-2 cells, 293T cells and the proviral DNA clone of NL4-3 virus were obtained from the NIH AIDS Research and Reference Reagent Program. MT-2 cells were propagated in RPMI 1640 media supplemented with 10% heat inactivated fetal bovine serum (FBS), 100 jag/ml penicillin G and up to 100 units/mL streptomycin. The 293T cells were propagated in DMEM media supplemented with 10% heat inactivated FBS, 100 μg/mL penicillin G and 100 μg/mL streptomycin. A recombinant NL4-3 proviral clone, in which a section of the nef gene was replaced with the Renilla luciferase gene, was used to make the reference virus used in these studies. The recombinant virus was prepared through transfection of the recombinant NL4-3 proviral clone into 293T cells using Transit-293 Transfection Reagent from Mirus Bio LLC (Madison, Wis.). Supernatant was harvested after 2-3 days and the amount of virus present was titered in MT-2 cells using luciferase enzyme activity as a marker by measuring luciferase enzyme activity. Luciferase was quantitated using the EnduRen Live Cell Substrate from Promega (Madison, Wis.). Antiviral activities of compounds toward the recombinant virus were quantified by measuring luciferase activity in MT-2 cells infected for 4-5 days with the recombinant virus in the presence of serial dilutions of the compound.
(Johnson V A, Byington R T. Infectivity Assay. In Techniques in HIV Research. ed. Aldovini A, Walker B D. 71-76. New York: Stockton Press. 1990).

[2] = Compound cytotoxicity, XTT-based colorimetric assay; type: cell-based; details: human, uninfected MT2 cells, day 4, XTT
Method: Compound cytotoxicity and the corresponding CC50 values were determined using the same protocol as described in the antiviral assay except that uninfected cells were used. Cytotoxicity was assessed on day 4 in uninfected MT2 cells by using a XTT (2,3-bis[2-Methoxy-4-nitro-5-sulfophenyl]-2H-tetrazolium-5-carboxyanilide inner salt)-based colorimetric assay (Sigma-Aldrich, St Louis, Mo.).

SMILES | EC50 [1] | CC50 at 4 days [2]
COc1ccc(N(C)C(=O)[C@H](Cc2ccccc2)NC(=O)NS(=O)(=O)N2CCc3cc(C)ccc32)cc1 [CA-2] | 140 nM | > 33300 nM
COc1ccc(N(C)C(=O)[C@H](Cc2ccccc2)NC(=O)NS(=O)(=O)N2CCc3cc(Cl)cc(Cl)c32)cc1 [CA-3] | 5720 nM | > 100000 nM
COc1ccc(N(C)C(=O)[C@H](Cc2ccccc2)NC(=O)NS(=O)(=O)Nc2cccc3ccccc23)cc1 [CA-4] | 410 nM | 89400 nM
COc1ccc(N(C)C(=O)[C@H](Cc2ccccc2)NC(=O)NS(=O)(=O)Nc2ccc3ccccc3c2)cc1 [CA-5] | 180 nM | > 33300 nM
COc1ccc(N(C)C(=O)[C@H](Cc2ccccc2)NC(=O)NS(=O)(=O)Nc2ccccc2C#N)cc1 [CA-6] | 380 nM | > 100000 nM
COc1ccc(N(C)C(=O)[C@H](Cc2ccccc2)NC(=O)NS(=O)(=O)Nc2ccccc2F)cc1 [CA-7] | 140 nM | > 100000 nM
COc1ccc(N(C)C(=O)[C@H](Cc2ccccc2)NC(=O)NS(=O)(=O)Nc2cccc3ncccc23)cc1 [CA-8] | 590 nM | > 100000 nM
COc1ccc(N(C)C(=O)[C@H](Cc2ccccc2)NC(=O)NS(=O)(=O)Nc2cccc(C#N)c2)cc1 [CA-9] | 260 nM | > 100000 nM
COc1ccc(N(C)C(=O)[C@H](Cc2ccccc2)NC(=O)NS(=O)(=O)Nc2cccc(F)c2)cc1 [CA-10] | 70 nM | > 100000 nM
COc1ccc(N(C)C(=O)[C@H](Cc2ccccc2)NC(=O)NS(=O)(=O)Nc2ccc3c(c2)CCC3)cc1 [CA-11] | 70 nM | > 100000 nM
COc1ccc(N(C)C(=O)[C@H](Cc2ccccc2)NC(=O)NS(=O)(=O)Nc2ccc(Cl)c(Cl)c2)cc1 [CA-12] | 90 nM | > 33300 nM
COc1ccc(N(C)C(=O)[C@H](Cc2ccccc2)NC(=O)NS(=O)(=O)Nc2ccc(C)c(C)c2)cc1 [CA-13] | 60 nM | > 100000 nM
COc1ccc(N(C)C(=O)[C@H](Cc2ccccc2)NC(=O)NS(=O)(=O)Nc2cc(C)cc(C)c2)cc1 [CA-14] | 120 nM | > 33300 nM
COc1ccc(N(C)C(=O)[C@H](Cc2ccccc2)NC(=O)NS(=O)(=O)Nc2ccc(C#N)cc2)cc1 [CA-15] | 70 nM | > 100000 nM
COc1ccc(N(C)C(=O)[C@H](Cc2ccccc2)NC(=O)NS(=O)(=O)Nc2ccc(Br)cc2)cc1 [CA-16] | 90 nM | > 100000 nM
COc1ccc(N(C)C(=O)[C@H](Cc2ccccc2)NC(=O)NS(=O)(=O)Nc2ccc(NC(C)=O)cc2)cc1 [CA-17] | 1940 nM | > 100000 nM
COc1ccc(N(C)C(=O)[C@H](Cc2ccccc2)NC(=O)NS(=O)(=O)Nc2ccc(Oc3ccccc3)cc2)cc1 [CA-18] | 350 nM | > 33300 nM
COc1ccc(N(C)C(=O)[C@H](Cc2ccccc2)NC(=O)NS(=O)(=O)Nc2ccc(C(C)=O)cc2)cc1 [CA-19] | 120 nM | > 100000 nM
COc1ccc(N(C)C(=O)[C@H](Cc2ccccc2)NC(=O)NS(=O)(=O)Nc2ccc(C(C)(C)C)cc2)cc1 [CA-20] | 40 nM | > 100000 nM
COc1ccc(N(C)C(=O)[C@H](Cc2ccccc2)NC(=O)NS(=O)(=O)Nc2ccc(C(C)C)cc2)cc1 [CA-21] | 80 nM | > 100000 nM
COc1ccc(N(C)C(=O)[C@H](Cc2ccccc2)NC(=O)NS(=O)(=O)Nc2ccccc2C(N)=O)cc1 [CA-22] | 2510 nM | > 100000 nM
CCN(c1ccccc1)S(=O)(=O)NC(=O)N[C@@H](Cc1ccccc1)C(=O)N(C)c1ccc(OC)cc1 [CA-23] | 60 nM | > 100000 nM
COc1ccc(N(C)C(=O)[C@H](Cc2ccccc2)NC(=O)NS(=O)(=O)Nc2ccc3ncsc3c2)cc1 [CA-24] | 60 nM | > 100000 nM
COc1ccc(N(C)C(=O)[C@H](Cc2ccccc2)NC(=O)NS(=O)(=O)N(c2ccccc2)C(C)C)cc1 [CA-25] | 1010 nM | > 33300 nM
